Measured values as given in the supplement of paper PMC13207355.

Experiments:
Conditions in all cases: exposure time: 72 h
[1] = system: FT3469 (normal neural stem cell line); test: surviving fraction (nuclei count normalised to DMSO); higher = more cells surviving (less toxic)
[2] = system: E34 (patient-derived glioblastoma stem cells of proneural subtype); test: as above
[3] = system: E21 (patient-derived glioblastoma stem cells of mesenchymal subtype); test: as above
[4] = system: E28 (patient-derived glioblastoma stem cells of classical subtype); test: as above
[5] = system: E31 (patient-derived glioblastoma stem cells of proneural subtype); test: as above
[6] = system: E13 (patient-derived glioblastoma stem cells of classical subtype); test: as above
[7] = system: E57 (patient-derived glioblastoma stem cells of mesenchymal subtype); test: as above
[8] = system: FT3469; test: phenotypic distance (Euclidean, principal components) from DMSO controls (arbitrary units); higher = stronger morphological change
[9] = system: E34; test: as above
[10] = system: E21; test: as above
[11] = system: E28; test: as above
[12] = system: E31; test: as above
[13] = system: E13; test: as above
[14] = system: E57; test: as above
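Throughout, for phenotypic distance (Euclidean, principal components) from DMSO controls: cell Painting imaging in 384-well plates, CellProfiler features reduced to at least 20 principal components, Euclidean distance versus same-plate DMSO vehicle wells (0.1% v/v), median over six images per well.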
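Throughout, for surviving fraction (nuclei count normalised to DMSO): nuclei counted by high-content imaging of Hoechst-stained cells in laminin-coated 384-well plates, relative to 0.1% DMSO vehicle wells, with staurosporine as cell-death control.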

Nc1ncn(C2OC(CO)C(O)C2O)c(=O)n1 (stereo unspecified) [Azacytidine-5]
Conditions | phenotypic distance | surviving fraction
[1], 4.1 nM | – | 0.953
[1], 12.3 nM | – | 1
[1], 37 nM | – | 1.1
[1], 111.1 nM | – | 0.935
[1], 333.3 nM | – | 0.809
[1], 1000 nM | – | 1.04
[1], 3000 nM | – | 0.906
[2], 4.1 nM | – | 0.935
[2], 12.3 nM | – | 0.979
[2], 37 nM | – | 0.89
[2], 111.1 nM | – | 1.09
[2], 333.3 nM | – | 1.04
[2], 1000 nM | – | 0.914
[2], 3000 nM | – | 0.858
[3], 4.1 nM | – | 0.945
[3], 12.3 nM | – | 0.932
[3], 37 nM | – | 1.07
[3], 111.1 nM | – | 0.892
[3], 333.3 nM | – | 0.978
[3], 1000 nM | – | 0.779
[3], 3000 nM | – | 0.634
[4], 4.1 nM | – | 0.969
[4], 12.3 nM | – | 1.09
[4], 37 nM | – | 0.969
[4], 111.1 nM | – | 1.1
[4], 333.3 nM | – | 0.952
[4], 1000 nM | – | 1.15
[4], 3000 nM | – | 0.764
[5], 4.1 nM | – | 0.962
[5], 12.3 nM | – | 0.827
[5], 37 nM | – | 0.96
[5], 111.1 nM | – | 0.986
[5], 333.3 nM | – | 1.04
[5], 1000 nM | – | 0.731
[5], 3000 nM | – | 0.439
[6], 4.1 nM | – | 0.948
[6], 12.3 nM | – | 0.902
[6], 37 nM | – | 0.957
[6], 111.1 nM | – | 1
[6], 333.3 nM | – | 1.01
[6], 1000 nM | – | 0.894
[6], 3000 nM | – | 0.634
[7], 4.1 nM | – | 0.979
[7], 12.3 nM | – | 1.09
[7], 37 nM | – | 0.948
[7], 111.1 nM | – | 0.974
[7], 333.3 nM | – | 0.859
[7], 1000 nM | – | 0.702
[7], 3000 nM | – | 0.411
[8], 4.1 nM | 0.816 | –
[8], 12.3 nM | 0.612 | –
[8], 37 nM | 0.486 | –
[8], 111.1 nM | 1.17 | –
[8], 333.3 nM | 0.757 | –
[8], 1000 nM | 0.865 | –
[8], 3000 nM | 1.77 | –
[9], 4.1 nM | 0.787 | –
[9], 12.3 nM | 0.546 | –
[9], 37 nM | 0.387 | –
[9], 111.1 nM | 0.835 | –
[9], 333.3 nM | 0.732 | –
[9], 1000 nM | 0.672 | –
[9], 3000 nM | 1.24 | –
[10], 4.1 nM | 1.45 | –
[10], 12.3 nM | 0.512 | –
[10], 37 nM | 0.843 | –
[10], 111.1 nM | 1.36 | –
[10], 333.3 nM | 1.28 | –
[10], 1000 nM | 1.92 | –
[10], 3000 nM | 2.82 | –
[11], 4.1 nM | 0.577 | –
[11], 12.3 nM | 0.65 | –
[11], 37 nM | 0.956 | –
[11], 111.1 nM | 0.825 | –
[11], 333.3 nM | 3.86 | –
[11], 1000 nM | 0.76 | –
[11], 3000 nM | 1.01 | –
[12], 4.1 nM | 0.548 | –
[12], 12.3 nM | 0.901 | –
[12], 37 nM | 0.564 | –
[12], 111.1 nM | 0.874 | –
[12], 333.3 nM | 1.27 | –
[12], 1000 nM | 1.11 | –
[12], 3000 nM | 2.48 | –
[13], 4.1 nM | 0.774 | –
[13], 12.3 nM | 0.925 | –
[13], 37 nM | 0.631 | –
[13], 111.1 nM | 1.16 | –
[13], 333.3 nM | 1.01 | –
[13], 1000 nM | 2.56 | –
[13], 3000 nM | 4.39 | –
[14], 4.1 nM | 0.265 | –
[14], 12.3 nM | 1.15 | –
[14], 37 nM | 0.6 | –
[14], 111.1 nM | 0.593 | –
[14], 333.3 nM | 1.38 | –
[14], 1000 nM | 2.03 | –
[14], 3000 nM | 3.86 | –

CO[C@H]1C(=O)[C@]2(C)[C@@H](OC)C[C@H]3OC[C@@]3(OC(C)=O)[C@H]2[C@H](OC(=O)c2ccccc2)[C@]2(O)C[C@H](OC(=O)[C@H](O)[C@@H](NC(=O)OC(C)(C)C)c3ccccc3)C(C)=C1C2(C)C [Cabazitaxel]
Conditions | phenotypic distance | surviving fraction
[1], 4.1 nM | – | 0.374
[1], 12.3 nM | – | 0.573
[1], 37 nM | – | 0.435
[1], 111.1 nM | – | 0.553
[1], 333.3 nM | – | 0.535
[1], 1000 nM | – | 0.406
[1], 3000 nM | – | 0.63
[2], 4.1 nM | – | 0.399
[2], 12.3 nM | – | 0.365
[2], 37 nM | – | 0.434
[2], 111.1 nM | – | 0.49
[2], 333.3 nM | – | 0.476
[2], 1000 nM | – | 0.608
[2], 3000 nM | – | 0.531
[3], 4.1 nM | – | 0.323
[3], 12.3 nM | – | 0.353
[3], 37 nM | – | 0.326
[3], 111.1 nM | – | 0.325
[3], 333.3 nM | – | 0.365
[3], 1000 nM | – | 0.413
[3], 3000 nM | – | 0.423
[4], 4.1 nM | – | 0.367
[4], 12.3 nM | – | 0.401
[4], 37 nM | – | 0.344
[4], 111.1 nM | – | 0.301
[4], 333.3 nM | – | 0.412
[4], 1000 nM | – | 0.412
[4], 3000 nM | – | 0.534
[5], 4.1 nM | – | 0.252
[5], 12.3 nM | – | 0.164
[5], 37 nM | – | 0.195
[5], 111.1 nM | – | 0.192
[5], 333.3 nM | – | 0.262
[5], 1000 nM | – | 0.218
[5], 3000 nM | – | 0.288
[6], 4.1 nM | – | 0.197
[6], 12.3 nM | – | 0.226
[6], 37 nM | – | 0.203
[6], 111.1 nM | – | 0.265
[6], 333.3 nM | – | 0.25
[6], 1000 nM | – | 0.245
[6], 3000 nM | – | 0.32
[7], 4.1 nM | – | 0.0988
[7], 12.3 nM | – | 0.102
[7], 37 nM | – | 0.0906
[7], 111.1 nM | – | 0.117
[7], 333.3 nM | – | 0.125
[7], 1000 nM | – | 0.133
[7], 3000 nM | – | 0.141
[8], 4.1 nM | 4.34 | –
[8], 12.3 nM | 4.07 | –
[8], 37 nM | 3.92 | –
[8], 111.1 nM | 4.49 | –
[8], 333.3 nM | 4.39 | –
[8], 1000 nM | 5.31 | –
[8], 3000 nM | 3.95 | –
[9], 4.1 nM | 4.76 | –
[9], 12.3 nM | 5.24 | –
[9], 37 nM | 5.3 | –
[9], 111.1 nM | 4.8 | –
[9], 333.3 nM | 5.59 | –
[9], 1000 nM | 4.91 | –
[9], 3000 nM | 4.55 | –
[10], 4.1 nM | 7.35 | –
[10], 12.3 nM | 7.15 | –
[10], 37 nM | 6.53 | –
[10], 111.1 nM | 7.01 | –
[10], 333.3 nM | 7.6 | –
[10], 1000 nM | 8.51 | –
[10], 3000 nM | 7.5 | –
[11], 4.1 nM | 4.55 | –
[11], 12.3 nM | 4.4 | –
[11], 37 nM | 3.8 | –
[11], 111.1 nM | 4.96 | –
[11], 333.3 nM | 3.6 | –
[11], 1000 nM | 4.06 | –
[11], 3000 nM | 3.99 | –
[12], 4.1 nM | 4.63 | –
[12], 12.3 nM | 5.67 | –
[12], 37 nM | 4.24 | –
[12], 111.1 nM | 4.7 | –
[12], 333.3 nM | 4.56 | –
[12], 1000 nM | 4.89 | –
[12], 3000 nM | 3.99 | –
[13], 4.1 nM | 7.08 | –
[13], 12.3 nM | 7.55 | –
[13], 37 nM | 7.44 | –
[13], 111.1 nM | 6.21 | –
[13], 333.3 nM | 6.97 | –
[13], 1000 nM | 7.09 | –
[13], 3000 nM | 6.39 | –
[14], 4.1 nM | 6.8 | –
[14], 12.3 nM | 7.09 | –
[14], 37 nM | 5.83 | –
[14], 111.1 nM | 6.72 | –
[14], 333.3 nM | 6.55 | –
[14], 1000 nM | 6.56 | –
[14], 3000 nM | 6.86 | –
